Test results from patent publication US11214803B2, “Modulators of YAP1 expression” (Ionis Pharmaceuticals, Inc., priority 2019, dated 2022).
pIC50: −log10 of the molar value. Strand notation (5' to 3'): a small letter for the sugar, then the base; units joined by * are phosphorothioate-linked, units joined directly phosphodiester-linked; [ ] holds rarer units or linkages, { } end groups; capitals alone tell only the bases. e = 2'-O-(2-methoxyethyl) (MOE); k = constrained ethyl (cEt); [5mC] = 5-methylcytosine; d = 2'-deoxy (DNA); m = 2'-O-methyl

Experiments:
Yap1 mRNA [1] = assay: Inhibition of human Yap1 mRNA in SNU449 hepatocellular carcinoma xenograft tumors (Example 26); type: in vivo; conditions: SNU449 xenografts in NSG mice, 50 mg/kg twice weekly for five days, relative to PBS treated animals
Description: A SNU449 hepatocellular carcinoma xenograft tumor model was used to evaluate activity of modified oligonucleotides targeted to human Yap1. Ten million SNU449 cells in 30% matrigel were implanted subcutaneously into the flanks of female NOD Cg-Prkdcscid ll2rgtm1Wjl/SzJ (NSG) mice (from Jackson Laboratory) at 4-6 weeks of age. When tumors reached an average volume of 100 mm^3, approximately two weeks post-implantation, groups of four mice each were administered at 50 mg/kg twice weekly with modified oligonucleotides for five days. Tumors were collected and tested for Yap1 mRNA knockdown by RT-qPCR. Yap1 mRNA levels were measured as previously described using the Human Yap1 primer-probe set RTS4814. Yap1 mRNA levels were normalized to actin-beta content, as measured by primer probe set RTS5002. Results are presented in the tables below as percent control of the amount of Yap1 mRNA relative to PBS treated animals (% control).

Yap1 mRNA [2] = assay: Dose-dependent inhibition of human Yap1 in SNU-449 cells (Example 9, RTS36584); type: cell-based; conditions: free uptake; for % UTC (Yap1 mRNA): approximately 48 hours; for pIC50: linear regression on a log/linear plot
Outline: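 Read-out was Yap1 mRNA (primer-probe RTS36584) normalised to total RNA by RIBOGREEN, given as % of untreated cells, with IC50 fitted by linear regression of log/linear data. Oligonucleotides were dosed by free uptake to SNU-449 cells, 10,000/well, for ~48 h.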

[3] = Tolerability in Balb/c mice, plasma chemistry markers (Example 11); type: in vivo; conditions: 50 mg/kg subcutaneously twice a week for four weeks
Description: Balb/c mice were treated with modified oligonucleotides selected from studies described above and evaluated for changes in the levels of various plasma chemistry markers.
(§1) Groups of male Balb/c mice at 4-6 weeks of age (obtained from Taconic) were injected subcutaneously twice a week for four weeks (for a total of 8 treatments) with 50 mg/kg of modified oligonucleotides. One group of male Balb/c mice was injected with PBS. Mice were euthanized on day 26 post start of treatment (24 hours following the final administration).

[4] = Tolerability in CD-1 mice, plasma chemistry markers (Example 15); type: in vivo; conditions: male CD-1 mice, 50 mg/kg s.c. twice a week for four weeks (8 treatments), day 26
Description: CD-1 mice were treated with modified oligonucleotides selected from studies described above and evaluated for changes in the levels of various plasma chemistry markers.
(§2) Groups of four male CD-1 mice at 4-5 weeks of age (obtained from Charles River) were injected subcutaneously twice a week for four weeks (for a total of 8 treatments) with 50 mg/kg of modified oligonucleotides. One group of male CD-1 mice was injected with PBS. Mice were euthanized on day 26 post start of treatment (24 hrs following the final administration).

Yap1 mRNA [5] = assay: Dose-dependent inhibition of human Yap1 in A-431 cells (Example 6, 5,000 cells per well, RTS4814); type: cell-based; conditions: Table 54, A-431 cells
Outline: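 A-431 cells (5,000/well) took up oligonucleotides by free uptake at various doses for about 48 h. Yap1 mRNA was measured by RT-PCR (RTS4814), normalised to RIBOGREEN total RNA and expressed as % untreated control; IC50 by linear regression on a log/linear plot.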

Yap1 mRNA [6] = assay: Dose-dependent inhibition of human Yap1 in A-431 cells (Example 7, 10,000 cells per well, RTS36584); type: cell-based; conditions: free uptake, approximately 48 hours; for Yap1 mRNA, % UTC: A-431 cells, 10,000 cells per well
Outline: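 Yap1 mRNA was expressed as percent of untreated control after normalization to total RNA (RIBOGREEN), and IC50 was derived by log/linear linear regression. The read-out used primer-probe set RTS36584 roughly 48 hours after free-uptake dosing of oligonucleotides into A-431 cells (10,000 cells/well).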

[7] = Tolerability in CD-1 mice, body and organ weights (Example 15); type: in vivo; conditions: male CD-1 mice, 50 mg/kg s.c. twice a week for four weeks (8 treatments), end of study (day 26)
Description: as §2
Body weights of CD-1 mice were measured at the end of the study, and the average body weight for each group is presented in the table below. Modified oligonucleotides that caused any changes in organ weights outside the expected range for modified oligonucleotides were excluded from further studies.

[8] = Tolerability in Balb/c mice, body and organ weights (Example 11); type: in vivo; conditions: 50 mg/kg subcutaneously twice a week for four weeks, end of study
Description: as §1
Body weights of Balb/c mice were measured at the end of the study, and the average body weight for each group is presented in the table below. Modified oligonucleotides that caused any changes in organ weights outside the expected range for modified oligonucleotides were excluded from further studies.

Q: Which results are given for “1198641 (kA*kT*dT*dA*dG*dA*dG*dT*dA*dT*dG*dT*kG*eG*k[5mC]*eA; antisense) [compound 1198641]”?
A: Yap1 mRNA in tumors, % control (Yap1 mRNA [1]): 68 % control; % UTC (Yap1 mRNA) (Yap1 mRNA [2]; 31.3 nM): 55 % UTC; % UTC (Yap1 mRNA) (Yap1 mRNA [2]; 125.0 nM): 29 % UTC; % UTC (Yap1 mRNA) (Yap1 mRNA [2]; 500.0 nM): 11 % UTC; % UTC (Yap1 mRNA) (Yap1 mRNA [2]; 2000.00 nM): 3 % UTC; pIC50 (Yap1 mRNA [2]): 7.52

Q: For “716454 (antisense k[5mC]*kG*kA*dG*dA*dT*dT*dT*dA*dA*dA*dT*dA*kA*kG*kG) [compound 716454]”, which ALT [3] is on record?
A: 39 U/L

Q: And the AST [3]?
A: 60 U/L

Q: What about the BUN [3] of the same substance?
A: 14 mg/dL

Q: What about the TBIL [3] of the same substance?
A: 0.18 mg/dL

Q: And the ALB [4]?
A: 2.3 g/dL

Q: And the ALT [4]?
A: 44 U/L

Q: And the AST [4]?
A: 56 U/L

Q: And the pIC50 (Yap1 mRNA [5]; Yap1 mRNA, linear regression on a log/linear plot)?
A: 5.59

Q: What about the “% UTC 148 nM” value (Yap1 mRNA [5]; free uptake, 148 nM, approximately 48 hours, RTS4814) of the same substance?
A: 91 % UTC

Q: And the “% UTC 444 nM” value (Yap1 mRNA [5]; free uptake, 444 nM, approximately 48 hours, RTS4814)?
A: 71 % UTC

Q: And the “% UTC 1333 nM” value (Yap1 mRNA [5]; free uptake, 1333 nM, approximately 48 hours, RTS4814)?
A: 54 % UTC

Q: What about the “% UTC 4000 nM” value (Yap1 mRNA [5]; free uptake, 4000 nM, approximately 48 hours, RTS4814) of the same substance?
A: 48 % UTC

Q: And the “Yap1 mRNA, % UTC” value (Yap1 mRNA [6]; 15.6 nM)?
A: 84 % UTC

Q: And the “Yap1 mRNA, % UTC” value (Yap1 mRNA [6]; 62.5 nM)?
A: 39 % UTC

Q: And the “Yap1 mRNA, % UTC” value (Yap1 mRNA [6]; 4000.00 nM)?
A: 6 % UTC

Q: And the pIC50 (Yap1 mRNA [6]; A-431 cells, linear regression on log/linear plot)?
A: 7.00

Q: And the Kidney weight [7]?
A: 0.55 g

Q: What about the Liver weight [7] of the same substance?
A: 2.31 g

Q: What about the Spleen weight [7] of the same substance?
A: 0.20 g

Q: And the body weight [7]?
A: 38 g

Q: What about the Kidney weight [8] of the same substance?
A: 0.42 g

Q: What about the Liver weight [8] of the same substance?
A: 1.48 g

Q: And the Spleen weight [8]?
A: 0.14 g

Q: What about the body weight [8] of the same substance?
A: 25 g

Q: What does the source list for “1198673 (kG*kA*dT*dT*dT*dA*dG*dG*dA*dT*dG*d[5mC]*kA*eT*kG*eG; antisense) [compound 1198673]”?
A: Yap1 mRNA in tumors, % control (Yap1 mRNA [1]): 52 % control; % UTC (Yap1 mRNA) (Yap1 mRNA [2]; 31.3 nM): 51 % UTC; % UTC (Yap1 mRNA) (Yap1 mRNA [2]; 125.0 nM): 26 % UTC; % UTC (Yap1 mRNA) (Yap1 mRNA [2]; 500.0 nM): 8 % UTC; % UTC (Yap1 mRNA) (Yap1 mRNA [2]; 2000.00 nM): 3 % UTC; pIC50 (Yap1 mRNA [2]): > 7.52

Q: Which “Yap1 mRNA in tumors, % control” value (Yap1 mRNA [1]) does the source give for “1198501 (kG*kA*dT*dT*dT*dA*dG*dG*dA*dT*dG*e[5mC]*kA*eT*kG*eG; antisense) [compound 1198501]” here?
A: 54 % control

Q: What about the “% UTC (Yap1 mRNA)” value (Yap1 mRNA [2]; 31.3 nM) of the same substance?
A: 65 % UTC

Q: And the “% UTC (Yap1 mRNA)” value (Yap1 mRNA [2]; 125.0 nM)?
A: 36 % UTC

Q: And the “% UTC (Yap1 mRNA)” value (Yap1 mRNA [2]; 500.0 nM)?
A: 17 % UTC

Q: What about the “% UTC (Yap1 mRNA)” value (Yap1 mRNA [2]; 2000.00 nM) of the same substance?
A: 11 % UTC

Q: And the pIC50 (Yap1 mRNA [2])?
A: 7.00

Q: Which results are given for “1197269 (kT*kA*kA*dA*mG*dT*dG*dT*dA*dT*dG*dT*d[5mC]*kA*kG*kA; antisense) [compound 1197269]”?
A: Yap1 mRNA in tumors, % control (Yap1 mRNA [1]): 57 % control; % UTC (Yap1 mRNA) (Yap1 mRNA [2]; 31.3 nM): 48 % UTC; % UTC (Yap1 mRNA) (Yap1 mRNA [2]; 125.0 nM): 21 % UTC; % UTC (Yap1 mRNA) (Yap1 mRNA [2]; 500.0 nM): 7 % UTC; % UTC (Yap1 mRNA) (Yap1 mRNA [2]; 2000.00 nM): 1 % UTC; pIC50 (Yap1 mRNA [2]): > 7.52

Q: What does the source list for “1074461 (kG*kA*kA*dA*dT*dT*dG*dT*d[5mC]*dT*d[5mC]*dA*dT*kG*k[5mC]*k[5mC]) [compound 1074461]”?
A: % UTC (Yap1 mRNA) (Yap1 mRNA [2]; 31.3 nM): 76 % UTC; % UTC (Yap1 mRNA) (Yap1 mRNA [2]; 125.0 nM): 37 % UTC; % UTC (Yap1 mRNA) (Yap1 mRNA [2]; 500.0 nM): 15 % UTC; % UTC (Yap1 mRNA) (Yap1 mRNA [2]; 2000.00 nM): 5 % UTC; pIC50 (Yap1 mRNA [2]): 7.00; ALB [4]: 2.2 g/dL; ALT [4]: 1563 U/L; AST [4]: 865 U/L
